# Assay results published in publication PMC3878165 (Bioorganic & Medicinal Chemistry Letters, 2013).
# Molecular target: SARS-CoV 3CLpro (Severe acute respiratory syndrome coronavirus, UniProt P0C6U8)
# Assay type: biochemical
SMILES,3CLpro activity in words,loss in inhibition/activity
CC(=O)Nc1ccc(N(C(=O)Cn2nnc3ccccc32)C(C(=O)NC(C)(C)C)c2ccsc2)cc1 (centres unmarked) [13a],moderate micromolar activity,
CC(C)(C)NC(=O)C(c1ccsc1)N(C(=O)Cn1nnc2ccccc21)c1ccc(NS(C)(=O)=O)cc1 (centres unmarked) [13b],,three-fold
CC(C)(C)NC(=O)C(c1ccsc1)N(C(=O)Cn1nnc2ccccc21)c1ccc(NC(=O)C(C)(C)C)cc1 (centres unmarked) [13e],,three-fold
CC(C)(C)NC(=O)C(c1ccsc1)N(C(=O)Cn1nnc2ccccc21)c1ccc(NC(=O)C2CC2)cc1 (centres unmarked) [13f],loss of inhibition,
CC(C)(C)NC(=O)C(c1ccsc1)N(C(=O)Cn1nnc2ccccc21)c1ccc(NC(=O)C2CCCCC2)cc1 (centres unmarked) [13h],loss of inhibition,
CC(C)COC(=O)Nc1ccc(N(C(=O)Cn2nnc3ccccc32)C(C(=O)NC(C)(C)C)c2ccsc2)cc1 (centres unmarked) [13l],weak or inactive,
O=C(Nc1ccc(N(Cc2ccsc2)C(=O)Cn2nnc3ccccc32)cc1)C1CCCCC1 [16g],weak inhibitor,
O=C(Nc1ccc(N(Cc2ccsc2)C(=O)Cn2nnc3ccccc32)cc1)c1ccccc1 [16h],lack of activity,
CNc1ccc(N(Cc2ccsc2)C(=O)Cn2nnc3ccccc32)cc1 [16j],potency comparable to probe ML300,
O=C(Cn1nnc2ccccc21)N(Cc1ccsc1)c1ccc(NCc2ccccc2)cc1 [16k],potency comparable to probe ML300,
COc1ncc(-c2ccc(N(Cc3ccsc3)C(=O)Cn3nnc4ccccc43)cc2)cn1 [17e],micromolar activity,
